Laboratory results taken from PubChem BioAssay (NCI).
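Compound exposure: 48 hours, 5 concentrations, 96-well plates. The concentration for 50% growth inhibition is given as GI50. At the TGI there is no net growth.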

Columns and labels:
Assay in all cases: NCI anticancer screen, dose series, 48 h
HOP-92 NSCLC = test system: HOP-92 NSCLC
SW-620 colon = test system: SW-620 colon
OVCAR-4 ovarian = test system: OVCAR-4 ovarian
K-562 leukemia = test system: K-562 leukemia
SNB-75 CNS = test system: SNB-75 CNS
NCI-H226 lung = test system: NCI-H226 lung
SF-295 CNS = test system: SF-295 CNS
MOLT-4 leukemia = test system: MOLT-4 leukemia
M14 melanoma = test system: M14 melanoma
SN12C renal = test system: SN12C renal
UACC-257 melanoma = test system: UACC-257 melanoma
RPMI-8226 leukemia = test system: RPMI-8226 leukemia
HOP-62 NSCLC = test system: HOP-62 NSCLC
SF-268 CNS = test system: SF-268 CNS
MCF7 breast = test system: MCF7 breast
DU-145 prostate = test system: DU-145 prostate
MDA-MB-231 breast = test system: MDA-MB-231 breast
MALME-3M melanoma = test system: MALME-3M melanoma
RXF 393 renal = test system: RXF 393 renal
TK-10 renal = test system: TK-10 renal
U251 CNS = test system: U251 CNS
OVCAR-5 ovarian = test system: OVCAR-5 ovarian
HCT-15 colon = test system: HCT-15 colon
HCC-2998 colon = test system: HCC-2998 colon
A498 renal = test system: A498 renal
786-0 renal = test system: 786-0 renal
COLO 205 colon = test system: COLO 205 colon
OVCAR-8 ovarian = test system: OVCAR-8 ovarian
ACHN renal = test system: ACHN renal
MDA-MB-435 = test system: MDA-MB-435
BT-549 breast = test system: BT-549 breast
SK-MEL-28 melanoma = test system: SK-MEL-28 melanoma
SF-539 CNS = test system: SF-539 CNS
HT29 colon = test system: HT29 colon
KM12 colon = test system: KM12 colon
T-47D breast = test system: T-47D breast
UACC-62 melanoma = test system: UACC-62 melanoma
NCI-H23 lung = test system: NCI-H23 lung
SK-MEL-5 melanoma = test system: SK-MEL-5 melanoma
PC-3 prostate = test system: PC-3 prostate
NCI/ADR-RES ovarian = test system: NCI/ADR-RES ovarian
NCI-H522 lung = test system: NCI-H522 lung
HCT-116 colon = test system: HCT-116 colon
SK-MEL-2 melanoma = test system: SK-MEL-2 melanoma
NCI-H460 lung = test system: NCI-H460 lung
SNB-19 CNS = test system: SNB-19 CNS
LOX IMVI melanoma = test system: LOX IMVI melanoma
A549 NSCLC = test system: A549 NSCLC
UO-31 renal = test system: UO-31 renal
SK-OV-3 ovarian = test system: SK-OV-3 ovarian
EKVX NSCLC = test system: EKVX NSCLC
IGROV1 ovarian = test system: IGROV1 ovarian
CCRF-CEM leukemia = test system: CCRF-CEM leukemia
CAKI-1 renal = test system: CAKI-1 renal
SR leukemia = test system: SR leukemia

With `CCCCCc1ccc(S(=O)(=O)Nc2cc(-c3csc(NC(=O)CN4CCN(CCO)CC4)n3)ccc2OC)cc1` the GI50 (HOP-92 NSCLC) was 1500 nM, the TGI (HOP-92 NSCLC) was 3000 nM and the GI50 (SW-620 colon) was 1750 nM. The TGI (SW-620 colon) was 3300 nM, the GI50 (OVCAR-4 ovarian) was 2050 nM and the TGI (OVCAR-4 ovarian) was 5120 nM. The GI50 (K-562 leukemia) was 2690 nM, the TGI (K-562 leukemia) was > 100000 nM and the GI50 (SNB-75 CNS) was 1390 nM. It also gave a TGI (SNB-75 CNS) of 2750 nM, a GI50 (NCI-H226 lung) of 1900 nM and a TGI (NCI-H226 lung) of 3880 nM. For the same molecule, the GI50 (SF-295 CNS) was 1890 nM, the TGI (SF-295 CNS) was 3740 nM and the GI50 (MOLT-4 leukemia) was 3170 nM. It also gave a TGI (MOLT-4 leukemia) of 10600 nM, a GI50 (M14 melanoma) of 1710 nM and a TGI (M14 melanoma) of 3240 nM. For the same molecule, the GI50 (SN12C renal) was 1940 nM, the TGI (SN12C renal) was 3690 nM and the GI50 (UACC-257 melanoma) was 1660 nM. It also gave a TGI (UACC-257 melanoma) of 3220 nM, a GI50 (RPMI-8226 leukemia) of 1780 nM and a TGI (RPMI-8226 leukemia) of 4280 nM. The GI50 (HOP-62 NSCLC) was 1660 nM, the TGI (HOP-62 NSCLC) was 3180 nM and the GI50 (SF-268 CNS) was 1700 nM. The TGI (SF-268 CNS) was 3400 nM, the GI50 (MCF7 breast) was 1620 nM and the TGI (MCF7 breast) was 3200 nM. For the same molecule, the GI50 (DU-145 prostate) was 1890 nM, the TGI (DU-145 prostate) was 3600 nM and the GI50 (MDA-MB-231 breast) was 1940 nM. For the same molecule, the TGI (MDA-MB-231 breast) was 3830 nM, the GI50 (MALME-3M melanoma) was 1640 nM and the TGI (MALME-3M melanoma) was 3150 nM. For the same molecule, the GI50 (RXF 393 renal) was 1380 nM, the TGI (RXF 393 renal) was 3010 nM and the GI50 (TK-10 renal) was 1940 nM. It also gave a TGI (TK-10 renal) of 3960 nM, a GI50 (U251 CNS) of 1730 nM and a TGI (U251 CNS) of 3410 nM. The GI50 (OVCAR-5 ovarian) was 2190 nM, the TGI (OVCAR-5 ovarian) was 5440 nM and the GI50 (HCT-15 colon) was 1860 nM. It also gave a TGI (HCT-15 colon) of 3650 nM, a GI50 (HCC-2998 colon) of 1930 nM and a TGI (HCC-2998 colon) of 3800 nM. For the same molecule, the GI50 (A498 renal) was 1580 nM, the TGI (A498 renal) was 2950 nM and the GI50 (786-0 renal) was 1850 nM. For the same molecule, the TGI (786-0 renal) was 3390 nM, the GI50 (COLO 205 colon) was 1610 nM and the TGI (COLO 205 colon) was 3110 nM. The GI50 (OVCAR-8 ovarian) was 1820 nM, the TGI (OVCAR-8 ovarian) was 3520 nM and the GI50 (ACHN renal) was 1810 nM. It also gave a TGI (ACHN renal) of 3280 nM, a GI50 (MDA-MB-435) of 1700 nM and a TGI (MDA-MB-435) of 3210 nM. For the same molecule, the GI50 (BT-549 breast) was 1550 nM, the TGI (BT-549 breast) was 3100 nM and the GI50 (SK-MEL-28 melanoma) was 1770 nM. It also gave a TGI (SK-MEL-28 melanoma) of 3250 nM, a GI50 (SF-539 CNS) of 1540 nM and a TGI (SF-539 CNS) of 2950 nM. For the same molecule, the GI50 (HT29 colon) was 1890 nM, the TGI (HT29 colon) was 3750 nM and the GI50 (KM12 colon) was 1920 nM. It also gave a TGI (KM12 colon) of 3700 nM, a GI50 (T-47D breast) of 1790 nM and a TGI (T-47D breast) of 3780 nM. It also gave a GI50 (UACC-62 melanoma) of 1810 nM, a TGI (UACC-62 melanoma) of 3540 nM and a GI50 (NCI-H23 lung) of 1930 nM. It also gave a TGI (NCI-H23 lung) of 4380 nM, a GI50 (SK-MEL-5 melanoma) of 1770 nM and a TGI (SK-MEL-5 melanoma) of 3200 nM. It also gave a GI50 (PC-3 prostate) of 2680 nM, a TGI (PC-3 prostate) of 7880 nM and a GI50 (NCI/ADR-RES ovarian) of 3490 nM. It also gave a TGI (NCI/ADR-RES ovarian) of 14100 nM, a GI50 (NCI-H522 lung) of 1860 nM and a TGI (NCI-H522 lung) of 3580 nM. It also gave a GI50 (HCT-116 colon) of 1720 nM, a TGI (HCT-116 colon) of 3240 nM and a GI50 (SK-MEL-2 melanoma) of 1780 nM. The TGI (SK-MEL-2 melanoma) was 3360 nM, the GI50 (NCI-H460 lung) was 1840 nM and the TGI (NCI-H460 lung) was 3460 nM. It also gave a GI50 (SNB-19 CNS) of 2050 nM, a TGI (SNB-19 CNS) of 4590 nM and a GI50 (LOX IMVI melanoma) of 1730 nM. The TGI (LOX IMVI melanoma) was 3240 nM, the GI50 (A549 NSCLC) was 1890 nM and the TGI (A549 NSCLC) was 4180 nM. For the same molecule, the GI50 (UO-31 renal) was 1520 nM, the TGI (UO-31 renal) was 3030 nM and the GI50 (SK-OV-3 ovarian) was 1810 nM. It also gave a TGI (SK-OV-3 ovarian) of 3300 nM, a GI50 (EKVX NSCLC) of 1690 nM and a TGI (EKVX NSCLC) of 3590 nM. The GI50 (IGROV1 ovarian) was 1920 nM, the TGI (IGROV1 ovarian) was 4010 nM and the GI50 (CCRF-CEM leukemia) was 2540 nM. For the same molecule, the TGI (CCRF-CEM leukemia) was 7830 nM, the GI50 (CAKI-1 renal) was 1620 nM and the TGI (CAKI-1 renal) was 3320 nM. It also gave a GI50 (SR leukemia) of 1760 nM and a TGI (SR leukemia) of 5230 nM.
